Measurements published in patent publication US20180201594A1, “Compound pac-1 or salt thereof and pharmaceutical composition comprising same” (priority 2015, published 2018).
Values after ≈ are worked out from the molar mass of the structure shown.

Tests used:
[1] = Solubility comparison of ZYS-1 and PAC-1 needle crystal (HPLC); assay type: physicochemical; details: organic solvent or mixture, thermodynamic from solid, room temperature
Protocol: The appropriate amounts of ZYS-1 and PAC-1 needle crystal were dissolved into the appropriate amount of methanol, absolute ethanol, 95% ethanol, acetonitrile, ethyl ether, ethyl acetate, propanol, acetone, respectively, and sonicated for 1 hour, then left at room temperature for 24 hours to obtain the oversaturated solution. After centrifugation at 4000 r/min for 5 min, the supernatant was diluted appropriately and filtered through a 0.45 μm needle filter. The concentration was determined by HPLC and the solubility was calculated.

[2] = In vivo pharmacokinetic comparison in rats; details: male Wistar rats, 60 mg/Kg, n = 6
Protocol: Twelve male Wistar rats were randomly divided into ZYS-1 group and PAC-1 group. These rats were fasted for 12 hours before administration, and fed water freely. After ZYS-1 and PAC-1 needle crystal were given at the dose of 60 mg/Kg, 0.5 mL orbital blood was collected at 0, 5, 20, 30, 45, 60, 120, 180, 240, 360, 480, 720 mins, centrifuged at 5000 r/min for 5 min. 200 μL plasma was taken. The plasma was added 3 mL acetone and vortexed for 1 min. After centrifuging at 15000 r/min for 5 min, the supernatant was collected and dried under nitrogen at 37° C., to which 200 μL acetonitrile was added to be reconstituted. After sonication for 10 min, the mixture was vortexed for 1 min, and filtered through 0.45 microporous filter membrane. The filtrate was tested by HPLC, and the plasma concentration at each time point was calculated.

[3] = in vivo; details: both sexes, ICR, mouse, in vivo, po
Excerpt: (§1) Experimental materials: PAC-1 needle crystal (prepared according to the method of Quinn P. Peterson et al., J. Med. Chem. 2009, 52, 5721-5731), batch number 20090818.
(§2) Experimental animals and feeding conditions: ICR mice, half male and half female. Body weight 20±2 g, provided by Beijing Weitonglihua Experimental Animal Technology Co., Ltd., SPF grade feeding, certificate: SCXK (Beijing) 2006-0009. Particulate feed for mouse breeding was provided by Beijing Ke'ao Xieli Feed Co., Ltd. Animals were housed in barrier-level (Grade 2) animal lab in Beijing Anzhen Hospital, fluorescent lighting, 12 h light and dark cycle, room ? temperature 22˜24 ? , humidity 40-47%, air supply 10-12 times/h, Laboratory license number: SYXK (Beijing) 2005-0028. Mice were housed in clear plastic boxes with 5 per cage separated by gender.
(§3) The method of preparing the test drug: PAC-1 needle crystal was placed in a mortar to be finely ground. A propriate amount of PAC-1 crystal was accurately weighed, which was formulated with 0.5% CMC-Na to reach the desired concentration.
(§4) Animals grouping: After fasting (except for water) for 11 h, according to body weight, animals were randomly divided into groups of 10 with 5 males and 5 females. There were 8 groups in total. […]. One-time intragastric administration was used in the experiment. The negative control group was orally administered an equal volume of 0.5% CMC-Na. The animals started feeding at 3 hours after administration.
(§5) Observed indicators: immediately after administration, the observation of the responses of the animals to drugs (such as: general performance, respiration, activity, with or without convulsions, righting reflex, pain reflex, response to external stimuli and other indicators) was started. When observing and recording the symptom of toxic reaction after animal administration, the time and duration of toxicity, recovery time, and the time of animal death, the animal was immediately dissected grossly, visually observing the main organs (heart, liver, spleen, lung and kidney, stomach) to see if there is congestion, increased volume, hardens, discoloration. For survival animals, they were observed and recorded day by day whether there was delayed death and delayed toxicity reaction in 7 days. The animals were weighed and fed once every 2 days. After finishing observation for 7 days, the survival animals were dissected grossly and the situations of their main organs were observed. […]

[4] = test system: ICR mice; experiment: in vivo
Excerpt: as §1, §2, §3, §4, §5

[5] = Solubility comparison of ZYS-1 and PAC-1 needle crystal (HPLC); assay type: physicochemical; details: room temperature
[6] = test system: Murine Lewis lung carcinoma cell line; experiment: Spontaneous metastatic cancer in mice (Lewis lung carcinoma); details: 100 mg/kg/d, intragastric administration
Protocol: The tumors growed to 1000 mm^3 and then were randomly divided into groups for adminstration, the groups were treated after three weeks. A total of 4 groups including ZYS-1 high, medium and low (100, 50, 25 mg/kg/d, intragastric administration) and positive control (gefitinib 100 mg/kg/d, intragastric administration) groups were set. The efficacy of ZYS-1 was evaluated in terms of general survival status (food intake, activity, hair etc.), tumor inhibition rate and metastasis inhibition rate.
The curve of tumor growth was plotted. On the next day after completing the treatment cycle, the animal was weighed. After collecting the blood, the animal was sacrificed. The tumor tissue was stripped, weighed, and the tumor inhibition rate was calculated. Store at −80 ? .
Metastasis rate=Number of mice with metastasis/Total number of mice×100%
Inhibition rate of metastasis loci=(average number of metastasis loci in the control group−average number of metastasis loci in the experimental group)/average number of metastasis loci in the control group×100%

[7] = both, ICR, mouse, in vivo, 7 days
[8] = one-time intragastric administration to mice

In the case of `C=CCc1cccc(/C=N/NC(=O)CN2CCN(Cc3ccccc3)CC2)c1O` [PAC-1 needle crystal, 1-Piperazineacetic acid, 4-(phenylmethyl)-2-[[2-hydroxy-3-(2-propen-1-yl)phenyl]methylene], reference compound], the solubility at 24 h ([1]; 95% ethanol) is reported as 16.4 mg/mL (≈ 41.9 mM), the solubility at 24 h ([1]; absolute ethanol) is reported as 18.9 mg/mL (≈ 48.3 mM) and the solubility at 24 h ([1]; acetone) is reported as 81.8 mg/mL (≈ 208 mM). The solubility at 24 h ([1]; acetonitrile) was 20.7 mg/mL (≈ 52.8 mM), the solubility at 24 h ([1]; diethyl ether) was 3.51 mg/mL (≈ 8.94 mM) and the solubility at 24 h ([1]; ethyl acetate) was 33.4 mg/mL (≈ 85 mM). The solubility at 24 h ([1]; methanol) was 28.2 mg/mL (≈ 71.8 mM), the solubility at 24 h ([1]; propanol) was 16 mg/mL (≈ 40.9 mM) and the “AUC(0-tn)” value [2] was 320.2186357 ± 127.0767162 µg·h/mL. For the same compound, the “AUC(0-∞)” value [2] was 578.8993071 ± 466.830172 µg·h/mL, the Cmax [2] was 2078.7579 ± 950.561 ng/mL and the “MRT(0-tn)” value [2] was 254.3166 ± 180.2413 h. For the same compound, the “MRT(0-∞)” value [2] was 1501.7189 ± 1808.4213 h, the Tmax [2] was 52.5000 ± 12.5499 h and the T½ka [2] was 15.4260 ± 11.8916 h. It also gave a T½α [2] of 134.7563 ± 63.3796 h, a V/F [2] of 0.0318 ± 0.0177 L and a ka [2] of 0.0720 ± 0.0468 h⁻¹. The ke [2] was 0.0062 ± 0.0029 h⁻¹, the lagtime [2] was 8.8081 ± 4.8496 h and the LD50 at 7 days ([3]; LD50 95% confidence limit) was 451 to 675 mg/kg. The LD50 at 7 days ([3]; acute toxicity (LD50) dose) was 552 mg/kg, the 0% mortality dose [4, 7] was 240.1 mg/kg and the 100% mortality dose [4, 7] was “greater than 1000 mg/kg”. For the same compound, the “dose without apparent toxicity” value [4, 7] was 117.7 mg/kg, the “time for most survival animals to return to normal after dosing” value [4, 8] was no more than 3 h and the “time of death after administration (mainly)” value [4, 8] was 30˜60 min. It also gave a Solubility ([5]; Water) of 0.0015 mg/mL (≈ 0.00382 mM) and a solubility at 24 h ([5]; chloroform, organic solvent or mixture, thermodynamic from solid) of 290 mg/mL (≈ 740 mM).

For `COc1cc2ncnc(Nc3ccc(F)c(Cl)c3)c2cc1OCCCN1CCOCC1` [Gefitinib, gefitinib, reference compound], the “Body weight of the animals, End” value [6] was 30.5 ± 5.0 g, the Metastasis rate [6] was 100% and the “Number of lung (metastasis loci)” value [6] was 6.9 ± 3.7. The Tumor weight [6] was 2.1036 ± 0.3382 g.
